# Source: US20150080475A1, “Memantine Protects Inflammation-Related Degeneration of Dopamine Neurons Through Inhibition of Over-Activated Microglia and Release of Neurotrophic Factors From Astroglia” (priority 2009, published 2015)
# Assays:
# GDNF = assay: RT-PCR of GDNF mRNA in astroglial cultures; type: cell-based, rat; settings: memantine 10 μM, time-dependent, 0 min to 24 h
# Description: GDNF mediated memantine-induced neurotrophic effects. Rat primary astroglia were exposed to 10 μM memantine for various time points ranging from 0 minute to 24 h. (FIG. 5A) Total RNA was extracted. […] (FIG. 5B) The ratio of densitometry values of GDNF and β-actin was analyzed and normalized to 0 min value. (FIG. 5C) Total protein of astroglial cells was extracted. Western blot analyses were performed with the antibody to GDNF. GAPDH was used as loading control. (FIG. 5D) The ratio of densitometry values of GDNF and GAPDH was analyzed and normalized to 0 min value. Values were expressed as mean±S.E.M. of three independent experiments. *p<0.05, **p<0.01, ***p<0.001, Bonferroni t-test vs 0 min for FIG. 5B and FIG. 5D; (FIG. 5E) Neuron-glia cultures were treated with either control goat IgG (isotype Ab), or goat anti-GDNF, combined with memantine (10 μM) treatment. DA uptake capacity was measured 7 days later. Results were expressed as a percentage of the vehicle-treated control cultures and represented mean±S.E.M. of three independent experiments performed in triplicate. *p<0.05, **p<0.01, ***p<0.001, Bonferroni's test vs control; #p<0.05, Bonferroni t-test vs memantine treated cultures.
# Mixed-glia cultures were first prepared from brains of 1-day-old Fisher 344 rat pups, as described previously. […]
# DA neurons = assay: LPS-induced neurotoxicity in neuron/glia cultures from NADPH oxidase-deficient mice; type: cell-based; settings: NADPH oxidase-deficient (gp 91 lacking) neuron/glia cultures, preliminary data
# Text: Results from two sets of experiments support this conclusion. […] Thus, the failure for MMT to protect LPS-induced DA neurons toxicity in NADPH oxidase-deficient neuron/glia cultures implies a critical role of this enzyme in mediating the neuroprotective effect of MMT. The present invention determines the binding site of MMT in microglia.
# Timed-pregnant (gestational day 14) adult female Fisher 344 rats were purchased from Charles River Laboratories (Raleigh, N.C., USA). Eight-wk-old (25-30 g) male and female B6.129S6-Cybb^tm1Din(PHOX^−/−) and C57BL/6J (PHOX^+/+) mice were purchased from Jackson Laboratories (Bar Harbor, Me., USA) and maintained in a strict pathogen free environment. The PHOX^−/− mice lack the functional catalytic subunit of the NADPH oxidase complex, gp91. NADPH oxidase is an inducible electron transport system in phagocytic cells that is responsible for the generation of the respiratory burst. PHOX^−/− mice are unable to generate extracellular superoxide in response to LPS or other immunological stimulus. Breeding of the mice was designed to achieve accurate timed-pregnancy±0.5 days. Because the PHOX^−/− mutation is maintained in the C57BL/6J background, the C57BL/6J (PHOX^+/+) mice were used as control animals. Housing, breeding and experimental use of the animals were performed in strict accordance with the National Institutes of Health guidelines. […]
# microglia = assay: Superoxide assay (SOD-inhibitable WST-1 reduction) after LPS; type: cell-based; settings: 30 min after LPS
# Description: Extracellular superoxide (O2^−) production from microglia was determined by measuring the superoxide dismutase (SOD) inhibitable reduction of 2-(4-lodophenyl)-3-(4-nitrophenyl)-5-(2,4,-disulfophenyl)-2H-tetrazolium, monosodium salt, WST-1. Briefly, 200 μL of primary enriched-microglia were seeded (1×10^5/well) in 96-well plates. The cells were then incubated for 24 h at 37° C. in a humidified atmosphere of 5% CO2 and 95% air. Immediately before treatment, cells were washed twice with Hanks balanced salt solution (HBSS). To each well, 100 μL of HBSS with or without SOD (600 U/mL), 50 μL of vehicle or LPS, and 50 μL of WST-1 (1 mM) in HBSS were added. The cultures were incubated for 30 min at 37° C. and 5% CO2 and 95% air. The absorbance at 450 nm was read with a Spectra Max Plus microtiter plate spectrophotometer (Molecular Devices, Sunnyvale, Calif., USA). […] The amount of SOD-inhibitable superoxide was calculated and expressed as percent of vehicle-treated control cultures.
# Neuron-glia cultures were pretreated for 30 min with MMT (3 μM) or vehicle before LPS stimulation. […] Production of superoxide (30 min after LPS) and iROS (2 h after LPS) was decreased by MMT treatment (FIGS. 6A and 6B). […] The production of PGE2 in cultures pretreated with 3 and 10 μM MMT decreased by 23% and 27% respectively (FIG. 6E).
structure (smiles),measurement,setting,value
"CC12CC3CC(C)(C1)CC(N)(C3)C2.Cl [MMT, 1-amino-3,5-dimethyladamantane hydrochloride]",GDNF mRNA levels,GDNF,significant main effects
same,neuroprotective effect on LPS-induced neurotoxicity,DA neurons,failed to produce any neuroprotective effect
same,production of superoxide,microglia,decreased
